Data as given in patent US9902725B2, “Heterocyclic derivatives as RORgamma modulators” (GENFIT, priority 2014, dated 2018).
Blank lines part the entries; values can stand above or below the molecule they belong to.

Columns and labels:
CYP1A2 = molecular target: T1, CYP1A2 (Homo sapiens, UniProt P05177); experiment: CYP inhibition CYP1A2 (CEREP); format: in vitro ADME; conditions: human recombinant CYP, single concentration (typically 10 μM)
T1 sequence (P05177 1-516): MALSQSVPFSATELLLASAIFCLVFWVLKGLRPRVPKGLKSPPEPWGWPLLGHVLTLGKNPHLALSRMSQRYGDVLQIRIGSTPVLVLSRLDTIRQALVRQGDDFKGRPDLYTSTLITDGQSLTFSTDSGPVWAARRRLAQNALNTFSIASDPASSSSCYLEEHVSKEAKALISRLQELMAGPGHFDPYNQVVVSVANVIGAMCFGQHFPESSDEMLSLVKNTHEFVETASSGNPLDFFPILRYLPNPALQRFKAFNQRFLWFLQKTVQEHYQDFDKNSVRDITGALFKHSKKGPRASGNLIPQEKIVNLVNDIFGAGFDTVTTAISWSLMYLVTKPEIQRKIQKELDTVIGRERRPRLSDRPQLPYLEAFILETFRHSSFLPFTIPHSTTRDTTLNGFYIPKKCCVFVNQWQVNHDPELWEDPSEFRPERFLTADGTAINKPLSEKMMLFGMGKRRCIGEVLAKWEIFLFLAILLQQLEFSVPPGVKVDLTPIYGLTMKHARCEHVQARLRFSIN
Procedure: (§1) All the assays were conducted at CEREP (CEREP, France and USA). Metabolic compound stability was tested in human (CEREP, Ref 607) and mouse (CEREP, Ref: 806) microsomes. Inhibition of human drug-metabolizing cytochromes P450 was tested on the five most commonly responsible enzymes of metabolism of xenobiotics, CYP1A2 (CEREP, Ref 389), CYP2C9 (CEREP, Ref 412), CYP2C19 (CEREP, Ref 390), CYP2D6 (CEREP, Ref 1338) and CYP3A4 (CEREP, Ref 391).
(§2) Briefly, CEREP's CYP inhibition assay uses traditional probe substrates, which are specific to individual CYP isoforms. 3-cyano-7-ethoxycoumarin is mainly catalyzed by CYP1A2 and CYP2C19, 3-[2-(N,N-diethyl-N-methylammonium)ethyl]-7-methoxy-4-methylcoumarin for CYP2C9 and CYP2D6 and finally, 7-benzyloxy-4-trifluoromethylcoumarin is pathway catalyzed predominantly by CYP3A4. The inhibition assays were performed with human recombinant CYP isoforms preparations. HPLC MS/MS methods are used to detect metabolites in these assays. Compounds were tested at single concentrations (typically 10 μM) and data were expressed as percent of control inhibition.

[1] = Microsomal stability, human microsomes (CEREP); format: in vitro ADME; conditions: 0.1 μM, 0.1 mg/mL microsomal protein
Procedure: as §1
(§3) Briefly, the standard conditions for CEREP's stability assays include incubation of test compound at 0.1 μM with human or mouse microsomes for 60 minutes in duplicate. The protein concentration of microsomes is 0.1 mg/mL. The parent compound is detected by HPLC-MS/MS analysis. The quantity of the parent compound that remains intact upon 60 minutes of microsome exposure (% remaining) is calculated by comparing the peak area of the parent compound at 60 minutes of exposure to the time zero.

CYP3A4 = CYP3A4 (Homo sapiens, UniProt P08684); experiment: CYP inhibition CYP3A4 (CEREP); format: in vitro ADME; conditions: single concentration (typically 10 μM)
Procedure: as §1, §2

CYP2D6 = CYP2D6 (Homo sapiens, UniProt P10635); experiment: CYP inhibition CYP2D6 (CEREP); format: in vitro ADME; conditions: single concentration (typically 10 μM)
Procedure: as §1, §2

CYP2C9 = CYP2C9 (Homo sapiens, UniProt P11712); experiment: CYP inhibition CYP2C9 (CEREP); format: in vitro ADME; conditions: single concentration (typically 10 μM)
Procedure: as §1, §2

CYP2C19 = CYP2C19 (Homo sapiens, UniProt P33261); experiment: CYP inhibition CYP2C19 (CEREP); format: in vitro ADME; conditions: single concentration (typically 10 μM)
Procedure: as §1, §2

[2] = Microsomal stability, mouse microsomes (CEREP); format: in vitro ADME; conditions: 0.1 μM, 0.1 mg/mL microsomal protein
Procedure: as §1, §3

MOG-induced EAE mice = experiment: MOG-induced EAE in mice, clinical score; format: in vivo
Procedure: 8-10 week old, male C57BL/6 mice were purchased from Janvier Lab (St Berthevin, France) and housed in a specific pathogen free (SPF) animal facility for one week before the start of the studies. Peptide antigen MOG35-55 (Myelin Oligodendrocyte Glycoprotein) ([…], SEQ ID NO:1, Polypeptide group, France) was dissolved in PBS and emulsified with an equal volume of Complete Freund's Adjuvant (CFA) containing 5 mg/mL of mycobacteria and administrated by subcutaneous injection at the dorsal flanks on day 0 at 200 μg/mouse. To ensure induction of reliable EAE, 200 ng of Bordetella pertussis toxin (Sigma) was given via intraperitoneal injection at day 0 and 2 (Cua, Sherlock et al. 2003; Zhang, Gran et al. 2003). Animals were treated with drug beginning 2 days before peptide injection. Animals were randomized into groups for treatment by weight, so that the average weight of each group was similar. The groups were segregated by cage. Compounds according to the invention were suspended in Carboxymethyl Cellulose (CMC) 1% (Sigma) and Tween80 0.1% (Sigma) by sonication and animals were dosed daily by gavage with 10 mL/kg body weight. The daily dose of Cpd. 1 was 30 mg/kg and vidofludimus (reference compound) at 60 mg/kg in protocol 1 to assess IL-17 A and IL-17F secretion from splenocytes ex vivo. In protocol 2, mice were treated with Cpd. 1 at 3 and 10 mg/Kg or T4 compound at 1 and 10 mg/kg daily by gavage to assess the clinical score. Clinical assessment of EAE was performed daily according to the following criteria: 0) no disease, 1) limp tail, 2) weak/partially paralyzed hind legs, 3) completely paralyzed hind legs, 4) complete hind and partial front leg paralysis, and 5) complete paralysis/death. For Cytokine quantifications, mice were euthanized 20 days after EAE induction. Spleen-isolated cells were collected and adjusted to 2×10^6 cells/mL. Cells were cultured in complete RPMI medium (RPMI supplemented with 10% of fetal calf serum, 1% glutamine, and 1% penicillin/streptomycin). Spleen cells were stimulated with MOG (20 μg/mL) (Polypeptide group, France). Cytokine levels were evaluated 48 h later by ELISA (R&D Systems Europe) or HTRF (CisBio, France) in culture supernatants using IL-17A and IL-17-F according to the manufacturer's protocols. The statistical significance was based on Student's t test (p<0.05, unpaired test).

multiple sclerosis model = conditions: administered by injection; cited from earlier work
psoriasis model = conditions: administered by injection; cited from earlier work
[3] = tested on: refractory Crohn diseased patients; conditions: phase IIb; cited from earlier work

Chain of CYP2C19 (P33261 whole entry): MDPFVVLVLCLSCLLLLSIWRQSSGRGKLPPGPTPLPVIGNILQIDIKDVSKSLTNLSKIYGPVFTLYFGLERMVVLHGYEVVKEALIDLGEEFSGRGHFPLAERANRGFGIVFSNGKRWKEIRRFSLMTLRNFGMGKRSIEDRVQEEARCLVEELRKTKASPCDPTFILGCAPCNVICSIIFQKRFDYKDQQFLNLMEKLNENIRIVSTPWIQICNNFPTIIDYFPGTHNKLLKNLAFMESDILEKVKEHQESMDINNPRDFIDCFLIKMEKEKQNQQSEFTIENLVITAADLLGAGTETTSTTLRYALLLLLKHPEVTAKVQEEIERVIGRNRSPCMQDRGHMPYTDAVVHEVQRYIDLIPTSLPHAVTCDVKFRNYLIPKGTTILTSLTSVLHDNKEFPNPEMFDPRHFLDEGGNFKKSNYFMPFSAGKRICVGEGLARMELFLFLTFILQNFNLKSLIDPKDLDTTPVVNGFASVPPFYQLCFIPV
Chain of CYP2D6 (P10635 whole entry): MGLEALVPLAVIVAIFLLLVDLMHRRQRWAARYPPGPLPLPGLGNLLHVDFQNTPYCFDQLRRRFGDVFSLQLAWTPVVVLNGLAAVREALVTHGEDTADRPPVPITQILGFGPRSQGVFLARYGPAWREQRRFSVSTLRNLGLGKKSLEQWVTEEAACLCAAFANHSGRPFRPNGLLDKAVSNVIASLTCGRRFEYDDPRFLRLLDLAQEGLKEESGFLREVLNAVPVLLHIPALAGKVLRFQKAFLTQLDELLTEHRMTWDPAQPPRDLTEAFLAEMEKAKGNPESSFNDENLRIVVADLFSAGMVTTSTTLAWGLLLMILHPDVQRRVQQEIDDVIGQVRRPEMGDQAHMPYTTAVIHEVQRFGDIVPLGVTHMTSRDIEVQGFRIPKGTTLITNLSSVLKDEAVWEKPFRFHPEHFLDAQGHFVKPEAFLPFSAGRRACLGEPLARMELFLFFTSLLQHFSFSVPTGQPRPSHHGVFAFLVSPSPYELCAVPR
Chain of CYP2C9 (P11712 whole entry): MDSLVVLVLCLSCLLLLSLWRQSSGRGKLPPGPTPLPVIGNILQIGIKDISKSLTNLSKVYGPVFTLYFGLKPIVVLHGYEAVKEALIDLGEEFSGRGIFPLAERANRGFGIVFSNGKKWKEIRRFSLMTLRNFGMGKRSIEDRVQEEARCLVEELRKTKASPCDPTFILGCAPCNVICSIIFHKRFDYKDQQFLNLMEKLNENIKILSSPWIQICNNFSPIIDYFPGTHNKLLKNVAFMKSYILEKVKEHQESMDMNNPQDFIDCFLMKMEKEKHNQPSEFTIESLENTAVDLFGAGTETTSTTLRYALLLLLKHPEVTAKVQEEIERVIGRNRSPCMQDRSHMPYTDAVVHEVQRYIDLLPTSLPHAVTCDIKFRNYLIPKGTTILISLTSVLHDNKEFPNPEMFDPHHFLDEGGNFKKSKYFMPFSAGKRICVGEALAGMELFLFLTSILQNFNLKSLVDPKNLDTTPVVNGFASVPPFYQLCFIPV
Chain of CYP3A4 (P08684 whole entry): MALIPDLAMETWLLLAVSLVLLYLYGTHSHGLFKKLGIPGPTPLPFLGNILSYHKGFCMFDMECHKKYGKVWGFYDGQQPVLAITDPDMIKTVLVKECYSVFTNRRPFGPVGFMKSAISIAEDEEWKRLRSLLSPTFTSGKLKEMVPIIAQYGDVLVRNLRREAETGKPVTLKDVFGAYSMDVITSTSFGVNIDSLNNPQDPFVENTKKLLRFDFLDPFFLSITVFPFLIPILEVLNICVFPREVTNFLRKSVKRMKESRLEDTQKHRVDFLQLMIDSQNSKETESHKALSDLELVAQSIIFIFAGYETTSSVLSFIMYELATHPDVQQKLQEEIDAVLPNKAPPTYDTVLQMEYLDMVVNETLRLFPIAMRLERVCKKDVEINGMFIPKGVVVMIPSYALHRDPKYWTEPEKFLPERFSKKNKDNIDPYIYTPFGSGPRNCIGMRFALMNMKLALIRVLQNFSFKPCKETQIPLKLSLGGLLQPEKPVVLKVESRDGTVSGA

CYP 1A2 (% inhibition of Control) (CYP1A2): −5% | Human microsomes (% Cpd. remaining at 60 min) [1]: 0% | CYP 3A4 (% inhibition of Control) (CYP3A4; human recombinant CYP): 93% | CYP 2D6 (% inhibition of Control) (CYP2D6; human recombinant CYP): 19% | CYP 2C9 (% inhibition of Control) (CYP2C9; human recombinant CYP): 75% | CYP 2C19 (% inhibition of Control) (CYP2C19; human recombinant CYP): 92% | Mouse microsomes (% Cpd. remaining at 60 min) [2]: 0%
Molecule: Cc1ccc(C(NC(=O)Cc2ccc3oc(C(O)c4c(C)noc4C)cc3c2)c2ccccc2)c(C)c1 (single isomer, unassigned) [Cpd. T-3, 2-(2-(hydroxy(3,5-dimethylisoxazol-4-yl)methyl)benzofuran-5-yl)-N-((2,4-dimethylphenyl)(phenyl)methyl)acetamide, reference compound]

CYP 1A2 (% inhibition of Control) (CYP1A2): −3% | Human microsomes (% Cpd. remaining at 60 min) [1]: 0% | inhibition at 10 µM (CYP3A4; human, recombinant CYP3A4, probe 7-benzyloxy-4-trifluoromethylcoumarin, read-out: CYP 3A4 (% inhibition of Control)): 82% | inhibition at 10 µM (CYP2D6; human, recombinant CYP2D6, human recombinant CYP, read-out: CYP 2D6 (% inhibition of Control)): 31% | inhibition at 10 µM (CYP2C9; human, recombinant CYP2C9, human recombinant CYP, read-out: CYP 2C9 (% inhibition of Control)): 73% | inhibition at 10 µM (CYP2C19; human, recombinant CYP2C19, probe 3-cyano-7-ethoxycoumarin, read-out: CYP 2C19 (% inhibition of Control)): 85% | Mouse microsomes (% Cpd. remaining at 60 min) [2]: 0%
Molecule: Cc1ccc(C(NC(=O)Cc2ccc3oc(C(O)c4c(C)noc4C)cc3c2)c2ccccc2)c(C)c1 (single isomer, unassigned) [Cpd. T-4, 2-(2-(hydroxy(3,5-dimethylisoxazol-4-yl)methyl)benzofuran-5-yl)-N-((2,4-dimethylphenyl)(phenyl)methyl)acetamide, reference compound]
EAE clinical score (MOG-induced EAE mice; daily by gavage, Cpd. 1 at 3 and 10 mg/Kg, T4 compound at 1 and 10 mg/kg): wasn't effective

Molecule: CC(=O)Nc1nc(C)c(S(=O)(=O)Nc2ccc(C(O)(C(F)(F)F)C(F)(F)F)cc2)s1 [SR1001]
efficacy in multiple sclerosis model (multiple sclerosis model): efficacious

Molecule: Cc1ccc([C@@H](NC(=O)Cc2ccc3oc([C@@H](O)c4c(C)noc4C)cc3c2)c2ccccc2)c(C)c1 [TMP778]
efficacy in psoriasis model (psoriasis model): efficacious

Molecule: Cc1ccc(C(NC(=O)Cc2ccc3oc(C(O)c4c(C)noc4C)cc3c2)c2ccccc2)c(C)c1 (centres unmarked) [compound T, 2-(2-(hydroxy(3,5-dimethylisoxazol-4-yl)methyl)benzofuran-5-yl)-N-((2,4-dimethylphenyl)(phenyl)methyl)acetamide, reference compound]
onset of EAE (MOG-induced EAE mice; administered p/os (orally) for 20 days): ineffective | efficacy in psoriasis model (psoriasis model): efficacious

Molecule: Ustekinumab: anti-p40 monoclonal antibody that targets Th17 and Th1 through IL-23 and IL-12
clinical efficacy in refractory Crohn diseased patients [3]: clinical (phase IIb) efficacy
